Measured values: BigSolDB 2.1

Br.Cc1ccc(Sc2ccccc2N2CCNCC2)c(C)c1
solubility (mole fraction)
Conditions | 283.15 K | 288.15 K | 293.15 K | 298.15 K | 303.15 K | 308.15 K | 313.15 K | 318.15 K
in 2-butanone | 6.2e-05 | 8.4e-05 | 0.000136 | 0.000163 | 0.00021 | 0.000267 | 0.000311 | 0.000338
in ethanol | 0.00123 | 0.00138 | 0.0015 | 0.00162 | 0.00199 | 0.00269 | 0.00297 | 0.00341
in n-butanol | 0.000582 | 0.000751 | 0.00086 | 0.00121 | 0.0017 | 0.00202 | 0.0023 | 0.00271
in n-propanol | 0.000934 | 0.00101 | 0.00115 | 0.00132 | 0.00178 | 0.00214 | 0.00245 | 0.00295
